Measured values: patent US20240358702A1, “CYCLIC UREA KRAS INHIBITORS” (INCYTE CORPORATION, priority 2023, published 2024)

Experiments:
Caco-2 cells = assay: Caco2 assay (permeability, A-B); type: in vitro ADME; details: Papp absorptive direction (A-B), test compound 50 μM, 120 minutes
Protocol: Caco-2 cells are grown at 37° C. in an atmosphere of 5% CO2 in DMEM growth medium supplemented with 10% (v/v) fetal bovine serum, 1% (v/v) nonessential amino acids, penicillin (100 U/mL), and streptomycin (100 μg/mL). Confluent cell monolayers are subcultured every 7 days or 4 days for Caco-2 by treatment with 0.05% trypsin containing […]. Caco-2 cells are seeded in 96-well Transwell plates. The seeding density for Caco-2 cells is 14,000 cells/well. DMEM growth medium is replaced every other day after seeding. Cell monolayers are used for transport assays between 22 and 25 days for Caco-2 cells.
Cell culture medium is removed and replaced with HBSS. To measure the TEER, the HBSS is added into the donor compartment (apical side) and receiver compartment (basolateral side). The TEER is measured by using a REMS Autosampler to ensure the integrity of the cell monolayers. Caco-2 cell monolayers with TEER values≥300 Ω·cm^2 are used for transport experiments. To determine the Papp in the absorptive direction (A-B), solution of test compound (50 μM) in HBSS is added to the donor compartment (apical side), while HBSS solution with 4% BSA is added to the receiver compartment (basolateral side). The apical volume was 0.075 mL, and the basolateral volume is 0.25 mL. The incubation period is 120 minutes at 37° C. in an atmosphere of 5% CO2. At the end of the incubation period, samples from the donor and receiver sides are removed and an equal volume of acetonitrile is added for protein precipitation. The supernatants are collected after centrifugation (3000 rpm, Allegra X-14R Centrifuge from Beckman Coulter, Indianapolis, IN) for LCMS analysis. The permeability value is determined according to the equation: […]
where the flux rate (F, mass/time) is calculated from the slope of cumulative amounts of compound of interest on the receiver side, SA is the surface area of the cell membrane, VD is the donor volume, and MD is the initial amount of the solution in the donor chamber.
The symbol “+” indicates a Caco-2 value of […], “++” indicates a Caco-2 value of >0.5 but ≤1; and “+++” indicates a Caco-2 value of >1. “NA” indicates IC50 not available.

KRAS G12V = KRAS G12V (Homo sapiens, UniProt P01116, G12V); assay: GDP-GTP exchange assay (bodipy-GDP/GppNHp, SOS1), KRAS G12V; type: biochemical; details: KRAS_G12V exchange assay IC50; value for the most potent isomer quoted
Chain of KRAS G12V (P01116 1-188 isoform P01116-2 G12V): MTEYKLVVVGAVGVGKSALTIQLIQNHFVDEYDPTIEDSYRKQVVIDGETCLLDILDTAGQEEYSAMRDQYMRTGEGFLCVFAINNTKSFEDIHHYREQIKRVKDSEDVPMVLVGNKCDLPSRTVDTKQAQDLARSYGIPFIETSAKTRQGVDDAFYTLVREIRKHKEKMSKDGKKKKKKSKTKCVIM
Protocol: (§1) The inhibitor potency of the exemplified compounds was determined in a fluorescence based guanine nucleotide exchange assay, which measures the exchange of bodipy-GDP (fluorescently labeled GDP) for GppNHp (Non-hydrolyzable GTP analog) to generate the active state of KRAS in the presence of SOS1 (guanine nucleotide exchange factor). Inhibitors were serially diluted in DMSO and a volume of 0.1 μL was transferred to the wells of a black low volume 384-well plate. 5 μL/well volume of bodipy-loaded KRAS G12D diluted to […] in assay buffer (25 mM Hepes pH 7.5, 50 mM NaCl, 10 mM mgCl2 and 0.01% Brij-35) was added to the plate and pre-incubated with inhibitor for 4 h at ambient temperature. Appropriate controls (enzyme with no inhibitor or with a G12D inhibitor) were included on the plate. The exchange was initiated by the addition of a 5 μL/well volume containing 1 mM GppNHp and 300 nM SOS1 in assay buffer. The 10 μL/well reaction concentration of the bodipy-loaded KRAS G12D, GppNHp, and SOS1 were 2.5 nM, 500 uM, and 150 nM, respectively. The reaction plates were incubated at ambient temperature for 2 h, a time estimated for complete GDP-GTP exchange in the absence of inhibitor. For the KRAS G12V mutant, similar guanine nucleotide exchange assays were used with 2.5 nM as final concentration for the bodipy loaded KRAS proteins and 3 h incubation after adding GppNHp-SOS1 mixture. A cyclic peptide described to selectively bind G12D mutant (Sakamoto et al., BBRC 484.3 (2017), 605-611) or internal compounds with confirmed binding were used as positive controls in the assay plates. Fluorescence intensities were measured on a PheraStar plate reader instrument (BMG Labtech) with excitation at 485 nm and emission at 520 nm.
(§2) Either GraphPad prism or Genedata Screener SmartFit was used to analyze the data. The IC50 values were derived by fitting the data to a four parameter logistic equation producing a sigmoidal dose-response curve with a variable Hill coefficient.
(§3) The symbol “t” indicates IC50≤100 nM, “††” indicates IC50>100 nM but ≤1 μM; and “†††” indicates IC50 is >1 μM but ≤5 μM, “††††” indicates IC50 is >5 μM but ≤10 μM. “NA” indicates IC50 not available.

KRAS G12D = KRAS G12D (Homo sapiens, UniProt P01116, G12D); assay: GDP-GTP exchange assay (bodipy-GDP/GppNHp, SOS1), KRAS G12D; type: biochemical; details: KRAS_G12D exchange assay IC50; 4 h pre-incubation; value for the most potent isomer quoted
Chain of KRAS G12D (P01116 1-188 isoform P01116-2 G12D): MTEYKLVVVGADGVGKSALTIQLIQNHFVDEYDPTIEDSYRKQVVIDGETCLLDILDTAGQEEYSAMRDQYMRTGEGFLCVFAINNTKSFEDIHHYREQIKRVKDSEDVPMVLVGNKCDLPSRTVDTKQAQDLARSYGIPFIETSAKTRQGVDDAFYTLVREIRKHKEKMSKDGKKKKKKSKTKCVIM
Protocol: as §1, §2, §3

Row | SMILES | Caco-2 (Caco-2 cells) | G12V_exchange (KRAS G12V) | G12D_exchange (KRAS G12D)
1 | Cc1nc2c(F)c(-c3cccc(Cl)c3Cl)c(CCC#N)cc2c2c1cc([C@@H](C)N1CCCN(c3ccncc3)C1=O)n2[C@H]1[C@H]2CN[C@@H]1C2 (single isomer, unassigned) [Example 1] | +++ (“+++” indicates a Caco-2 value of >1) | † | †
2 | Cc1nc2c(F)c(-c3cccc(Cl)c3Cl)c(CCC#N)cc2c2c1cc([C@@H](C)N1CCCN(c3ccccc3)C1=O)n2[C@H]1[C@H]2CN[C@@H]1C2 (single isomer, unassigned) [Example 2] | +++ (“+++” indicates a Caco-2 value of >1) | † | †
3 | Cc1nc2c(F)c(-c3cccc(Cl)c3Cl)c(CCC#N)cc2c2c1cc([C@@H](C)N1CCCN(c3ccc(F)cc3)C1=O)n2[C@H]1[C@H]2CN[C@@H]1C2 (single isomer, unassigned) [Example 3] | +++ (“+++” indicates a Caco-2 value of >1) | † | †
4 | Cc1nc2c(F)c(-c3cccc(Cl)c3Cl)c(CCC#N)cc2c2c1cc([C@@H](C)N1CCCN(c3ccccn3)C1=O)n2[C@H]1[C@H]2CN[C@@H]1C2 (single isomer, unassigned) [Example 4] | + (“+” indicates a Caco-2 value of 50.5) | † | †
5 | Cc1nc2c(F)c(-c3cccc(Cl)c3Cl)c(CCC#N)cc2c2c1cc([C@@H](C)N1CCCN(c3ccncc3F)C1=O)n2[C@H]1[C@H]2CN[C@@H]1C2 (single isomer, unassigned) [Example 5] | +++ (“+++” indicates a Caco-2 value of >1) | † | †
6 | Cc1nc2c(F)c(-c3cccc(Cl)c3Cl)c(CCC#N)cc2c2c1cc([C@@H](C)N1CCCN(c3ccnc(F)c3)C1=O)n2[C@H]1[C@H]2CN[C@@H]1C2 (single isomer, unassigned) [Example 6] | +++ (“+++” indicates a Caco-2 value of >1) | † | †
7 | Cc1nc2c(F)c(-c3cccc(Cl)c3Cl)c(CCC#N)cc2c2c1cc([C@@H](C)N1CCCN(c3ccc(F)cn3)C1=O)n2[C@H]1[C@H]2CN[C@@H]1C2 (single isomer, unassigned) [Example 7] | +++ (“+++” indicates a Caco-2 value of >1) | † | †
8 | CC(O)c1nc2c(F)c(-c3cccc(Cl)c3Cl)c(CCC#N)cc2c2c1cc([C@@H](C)N1CCCN(c3ccncc3)C1=O)n2[C@H]1[C@H]2CN[C@@H]1C2 (single isomer, unassigned) [Example 14] | + (“+” indicates a Caco-2 value of 50.5) | † | †
9 | Cc1c(Cl)cc(O)cc1-c1c(CCC#N)cc2c(nc(C)c3cc([C@@H](C)N4CCCN(c5ccncc5)C4=O)n([C@H]4[C@H]5CN[C@@H]4C5)c32)c1F [Example 15, 3-(1-((1R,4R,5S)-2-azabicyclo[2.1.1]hexan-5-yl)-7-(3-chloro-5-hydroxy-2-methylphenyl)-6-fluoro-4-methyl-2-((R)-1-(2-oxo-3-(pyridin-4-yl)tetrahydropyrimidin-1(2H)-yl)ethyl)-1H-pyrrolo[3,2-c]quinolin-8-yl)propanenitrile] | + (“+” indicates a Caco-2 value of 50.5) | † | †
